Patent US12577206B2 (BRISTOL-MYERS SQUIBB COMPANY, priority 2020, dated 2026)

Key:
[1] = target: T1, human FPR1 (Homo sapiens, UniProt P21462); assay: FPR1 cyclic adenosine monophosphate (cAMP) assay; type: cell-based; settings: CHO cells overexpressing human FPR1; forskolin 10 μM; inhibition of cAMP production; HTRF; read-out: hFPR1 cAMP2 EC50
T1 sequence (P21462 1-350): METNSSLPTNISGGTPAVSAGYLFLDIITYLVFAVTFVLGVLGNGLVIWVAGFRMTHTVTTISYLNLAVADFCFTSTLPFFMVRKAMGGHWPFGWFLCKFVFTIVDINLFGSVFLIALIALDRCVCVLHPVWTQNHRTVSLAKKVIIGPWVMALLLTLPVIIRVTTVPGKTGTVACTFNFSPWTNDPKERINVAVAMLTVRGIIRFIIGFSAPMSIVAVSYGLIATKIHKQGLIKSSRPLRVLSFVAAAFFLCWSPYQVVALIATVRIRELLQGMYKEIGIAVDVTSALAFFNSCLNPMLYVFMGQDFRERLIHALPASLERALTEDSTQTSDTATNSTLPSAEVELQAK
Summary of the method: (§1)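 CHO cells overexpressing human FPR1 (4,000/well) or FPR2 (2,000/well) were incubated 30 min at room temperature with compound (0.020 nM to 100 μM, 1% DMSO), IBMX 200 μM, and forskolin at 10 μM (FPR1) or 5 μM (FPR2), all final. HTRF cAMP read-out; inhibition fitted by 4-parameter logistic equation.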

[2] = target: T2, human FPR2 (Homo sapiens, UniProt P25090); assay: FPR2 cyclic adenosine monophosphate (cAMP) assay; type: cell-based; settings: CHO cells overexpressing human FPR2; forskolin 5 μM; inhibition of cAMP production; HTRF; read-out: hFPR2 cAMP2 EC50
T2 sequence (P25090 1-351): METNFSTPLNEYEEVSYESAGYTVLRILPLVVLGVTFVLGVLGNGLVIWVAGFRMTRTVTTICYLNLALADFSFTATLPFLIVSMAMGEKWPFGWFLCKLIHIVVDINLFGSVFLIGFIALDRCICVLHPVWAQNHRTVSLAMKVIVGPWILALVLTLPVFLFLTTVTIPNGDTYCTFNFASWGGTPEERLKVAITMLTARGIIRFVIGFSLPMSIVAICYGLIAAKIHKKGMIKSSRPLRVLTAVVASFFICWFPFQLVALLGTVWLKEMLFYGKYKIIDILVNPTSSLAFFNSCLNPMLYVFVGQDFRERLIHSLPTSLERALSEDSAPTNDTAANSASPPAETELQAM
Summary of the method: as §1

Structure (SMILES) | EC50 [1] [nM] | EC50 [2] [nM]
COc1cc(Cl)cc(-n2c(=O)c(NC(=O)c3ccc(OC(F)F)cc3)c(-c3c(F)cc(OC)cc3F)n2C)c1 [Example 124, N-[2-(3-chloro-5-methoxyphenyl)-5-(2,6-difluoro-4-methoxyphenyl)-1-methyl-3-oxo-2,3-dihydro-1H-pyrazol-4-yl]-4-(difluoromethoxy)benzamide] | > 10000 | 4
COc1cc(F)c(-c2c(NC(=O)c3ccc(OC(F)F)cc3)c(=O)n(-c3cc(F)cc(OC(C)C)c3)n2C)c(F)c1 [Example 125, N-[5-(2,6-difluoro-4-methoxyphenyl)-2-[3-fluoro-5-(propan-2-yloxy)phenyl]-1-methyl-3-oxo-2,3-dihydro-1H-pyrazol-4-yl]-4-(difluoromethoxy)benzamide] | 2000 | 4
COc1cc(F)c(-c2c(NC(=O)c3ccc(OC(F)F)cc3)c(=O)n(-c3cc(Cl)cc(C(=O)N(C)C)c3)n2C)c(F)c1 [Example 126, 3-chloro-5-[3-(2,6-difluoro-4-methoxyphenyl)-4-[4-(difluoromethoxy)benzamido]-2-methyl-5-oxo-2,5-dihydro-1H-pyrazol-1-yl]-N,N-dimethylbenzamide] | 1200 | 9
COc1cc(F)c(-c2c(NC(=O)c3ccc(OC(F)F)cc3)c(=O)n(-c3cc(Cl)cc(Cl)c3)n2C)c(F)c1 [Example 127, N-[2-(3,5-dichlorophenyl)-5-(2,6-difluoro-4-methoxyphenyl)-1-methyl-3-oxo-2,3-dihydro-1H-pyrazol-4-yl]-4-(difluoromethoxy)benzamide] | > 10000 | 8
COC(=O)c1cncc(-n2c(=O)c(NC(=O)c3ccc(OC(F)F)cc3)c(-c3c(F)cc(OC)cc3F)n2C)c1 [Example 128, methyl 5-[3-(2,6-difluoro-4-methoxyphenyl)-4-[4-(difluoromethoxy)benzamido]-2-methyl-5-oxo-2,3-dihydro-1H-pyrazol-1-yl]pyridine-3-carboxylate] | 19 | 7
COc1cncc(-n2c(=O)c(NC(=O)c3ccc(OC(F)F)cc3)c(-c3c(F)cc(OC)cc3F)n2C)c1 [Example 129, N-[5-(2,6-difluoro-4-methoxyphenyl)-2-(5-methoxypyridin-3-yl)-1-methyl-3-oxo-2,3-dihydro-1H-pyrazol-4-yl]-4-(difluoromethoxy)benzamide] | 2200 | 24
COc1cc(F)c(-c2c(NC(=O)c3ccc(OC(F)F)cc3)c(=O)n(-c3cncc(Cl)c3)n2C)c(F)c1 [Example 130, N-[2-(5-chloropyridin-3-yl)-5-(2,6-difluoro-4-methoxyphenyl)-1-methyl-3-oxo-2,3-dihydro-1H-pyrazol-4-yl]-4-(difluoromethoxy)benzamide] | 1900 | 20
COc1cc(F)c(-c2c(NC(=O)c3ccc(OC(F)F)cc3)c(=O)n(-c3cc(Cl)cc(C(F)(F)F)c3)n2C)c(F)c1 [Example 131, N-{2-[3-chloro-5-(trifluoromethyl)phenyl]-5-(2,6-difluoro-4-methoxyphenyl)-1-methyl-3-oxo-2,3-dihydro-1H-pyrazol-4-yl}-4-(difluoromethoxy)benzamide] | > 10000 | 11
COc1cc(F)cc(-n2c(=O)c(NC(=O)c3ccc(OC(F)F)cc3)c(-c3c(F)cc(OC)cc3F)n2C)c1 [Example 132, N-[5-(2,6-difluoro-4-methoxyphenyl)-2-(3-fluoro-5-methoxyphenyl)-1-methyl-3-oxo-2,3-dihydro-1H-pyrazol-4-yl]-4-(difluoromethoxy)benzamide] | 83 | 6
CCOC(=O)c1cc(F)cc(-n2c(=O)c(NC(=O)c3ccc(OC(F)F)cc3)c(-c3c(F)cc(OC)cc3F)n2C)c1 [Example 133, ethyl 3-[3-(2,6-difluoro-4-methoxyphenyl)-4-[4-(difluoromethoxy)benzamido]-2-methyl-5-oxo-2,5-dihydro-1H-pyrazol-1-yl]-5-fluorobenzoate] | 550 | 3
COc1cc(F)c(-c2c(NC(=O)c3ccc(OC(F)F)cc3)c(=O)n(-c3cc(C)cc(Cl)c3)n2C)c(F)c1 [Example 134, N-[2-(3-chloro-5-methylphenyl)-5-(2,6-difluoro-4-methoxyphenyl)-1-methyl-3-oxo-2,3-dihydro-1H-pyrazol-4-yl]-4-(difluoromethoxy)benzamide] | > 10000 | 10
COc1cc(F)c(-c2c(NC(=O)c3ccc(OC(F)F)cc3)c(=O)n(-c3nc(N4CCN(C)CC4)ccc3C(F)(F)F)n2C)c(F)c1 [Example 135, N-[5-(2,6-difluoro-4-methoxyphenyl)-1-methyl-2-[6-(4-methylpiperazin-1-yl)-3-(trifluoromethyl)pyridin-2-yl]-3-oxo-2,3-dihydro-1H-pyrazol-4-yl]-4-(difluoromethoxy)benzamide] | 2400 | 3
COc1cc(F)c(-c2c(NC(=O)c3ccc(OC(F)F)cc3)c(=O)n(-c3nc(N(C)C)ccc3C(F)(F)F)n2C)c(F)c1 [Example 136, N-[5-(2,6-difluoro-4-methoxyphenyl)-2-[6-(dimethylamino)-3-(trifluoromethyl)pyridin-2-yl]-1-methyl-3-oxo-2,3-dihydro-1H-pyrazol-4-yl]-4-(difluoromethoxy)benzamide] | 6800 | 3
COc1cc(F)c(-c2c(NC(=O)c3ccc(OC(F)F)cc3)c(=O)n(-c3nc(N4C5CCC4CN(C)C5)ccc3C(F)(F)F)n2C)c(F)c1 [Example 137, N-[5-(2,6-difluoro-4-methoxyphenyl)-1-methyl-2-(6-{3-methyl-3,8-diazabicyclo[3.2.1]octan-8-yl}-3-(trifluoromethyl)pyridin-2-yl)-3-oxo-2,3-dihydro-1H-pyrazol-4-yl]-4-(difluoromethoxy)benzamide] | 7100 | 16
COc1cc(F)c(-c2c(NC(=O)c3ccc(OC(F)F)cc3)c(=O)n(-c3nc(N4CC(C)(O)C4)ccc3C(F)(F)F)n2C)c(F)c1 [Example 138, N-[5-(2,6-difluoro-4-methoxyphenyl)-2-[6-(3-hydroxy-3-methylazetidin-1-yl)-3-(trifluoromethyl)pyridin-2-yl]-1-methyl-3-oxo-2,3-dihydro-1H-pyrazol-4-yl]-4-(difluoromethoxy)benzamide] | 4800 | 4
COc1cc(F)c(-c2c(NC(=O)c3ccc(OC(F)F)cc3)c(=O)n(-c3nc(N(CCO)CCO)ccc3C(F)(F)F)n2C)c(F)c1 [Example 139, N-(2-{6-[bis(2-hydroxyethyl)amino]-3-(trifluoromethyl)pyridin-2-yl}-5-(2,6-difluoro-4-methoxyphenyl)-1-methyl-3-oxo-2,3-dihydro-1H-pyrazol-4-yl)-4-(difluoromethoxy)benzamide] | > 10000 | 3
COc1cc(F)c(-c2c(NC(=O)c3ccc(OC(F)F)cc3)c(=O)n(-c3nc(N4CC(OC(C)C)C4)ccc3C(F)(F)F)n2C)c(F)c1 [Example 140, N-[5-(2,6-difluoro-4-methoxyphenyl)-1-methyl-3-oxo-2-{6-[3-(propan-2-yloxy)azetidin-1-yl]-3-(trifluoromethyl)pyridin-2-yl}-2,3-dihydro-1H-pyrazol-4-yl]-4-(difluoromethoxy)benzamide] | 1500 | 4
COc1cc(F)c(-c2c(NC(=O)c3ccc(Cl)cc3)c(=O)n(-c3nc(N4CC(OC(C)C)C4)ccc3C(F)(F)F)n2C)c(F)c1 [Example 141, 4-chloro-N-[5-(2,6-difluoro-4-methoxyphenyl)-1-methyl-3-oxo-2-{6-[3-(propan-2-yloxy)azetidin-1-yl]-3-(trifluoromethyl)pyridin-2-yl}-2,3-dihydro-1H-pyrazol-4-yl]benzamide] | 3300 | 7
COc1cc(F)c(-c2c(NC(=O)c3ccc(OC(F)F)cc3)c(=O)n(-c3ncccc3N(C)C)n2C)c(F)c1 [Example 142, N-[5-(2,6-difluoro-4-methoxyphenyl)-2-[3-(dimethylamino)pyridin-2-yl]-1-methyl-3-oxo-2,3-dihydro-1H-pyrazol-4-yl]-4-(difluoromethoxy)benzamide] | 3100 | 17
COc1cc(F)c(-c2c(NC(=O)c3ccc(OC(F)F)cc3)c(=O)n(-c3nc(N4CCN(C)CC4)ccc3Cl)n2C)c(F)c1 [Example 143, N-{2-[3-chloro-6-(4-methylpiperazin-1-yl)pyridin-2-yl]-5-(2,6-difluoro-4-methoxyphenyl)-1-methyl-3-oxo-2,3-dihydro-1H-pyrazol-4-yl}-4-(difluoromethoxy)benzamide] | 3700 | 10
